From ChEMBL document CHEMBL1201862, “PubChem BioAssay data set” (2004)
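Step 1: Grow cells in 96-well plates. Step 2: Expose to compound for 48 hours at 5 concentrations. Step 3: Interpolate endpoints linearly; if unreached, use highest concentration. GI50 = concentration required for 50% inhibition of growth.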 Calls of active or inactive are those of the source. No stated cut-off is given here; in the data, active = GI50 up to about 1.1 µM and inactive = higher.

Experiments:
Test in all cases: NCI tumour cell line growth inhibition, 48 h
TK-10 = test system: TK-10
OVCAR-8 = test system: OVCAR-8
A549 = test system: A549
MDA-N = test system: MDA-N
U-251 = test system: U-251
K562 = test system: K562
UACC-257 = test system: UACC-257
SR = test system: SR
OVCAR-4 = test system: OVCAR-4
HCC 2998 = test system: HCC 2998
SNB-19 = test system: SNB-19
UACC-62 = test system: UACC-62
HT-29 = test system: HT-29
SF-295 = test system: SF-295
CAKI-1 = test system: CAKI-1
DU-145 = test system: DU-145
CCRF-CEM = test system: CCRF-CEM
NCI-H460 = test system: NCI-H460
MCF7 = test system: MCF7
786-0 = test system: 786-0

Measured: GI50

C[C@@H]1[C@@H](C)C(c2ccccc2)O[Si]1(C(C)(C)C)C(C)(C)C (stereo not given in full)
inactive: TK-10 16.4 µM | OVCAR-8 17.8 µM | A549 16.6 µM | MDA-N 22.5 µM | U-251 17 µM | K562 22.3 µM | UACC-257 17.1 µM | SR 11.8 µM | OVCAR-4 37.8 µM | HCC 2998 19.8 µM | SNB-19 13.8 µM | UACC-62 19.1 µM | HT-29 15.2 µM | SF-295 16.6 µM | CAKI-1 17.1 µM | DU-145 17.6 µM | CCRF-CEM 18.9 µM | NCI-H460 17.4 µM | MCF7 18.1 µM | 786-0 16 µM

CC(C)C[S+]1C2=C(CC(C)(C)CC2=O)[N-]c2ccccc21 (stereo not given)
inactive: TK-10 > 100 µM | OVCAR-8 > 100 µM | A549 > 100 µM | MDA-N > 100 µM | U-251 > 100 µM | K562 71.9 µM | UACC-257 > 100 µM | SR 11.3 µM | OVCAR-4 > 100 µM | HCC 2998 > 100 µM | SNB-19 > 100 µM | UACC-62 > 100 µM | HT-29 > 100 µM | SF-295 > 100 µM | CAKI-1 > 100 µM | DU-145 > 100 µM | CCRF-CEM > 100 µM | NCI-H460 > 100 µM | MCF7 > 100 µM | 786-0 > 100 µM

C=C(COC(=O)C(C)C)[C@H]1Oc2ccc(C(C)=O)cc2[C@@H]1OC(=O)C(C)C
inactive: TK-10 > 100 µM | OVCAR-8 > 100 µM | A549 > 100 µM | MDA-N > 100 µM | U-251 > 100 µM | K562 > 100 µM | UACC-257 > 100 µM | SR > 100 µM | OVCAR-4 > 100 µM | HCC 2998 > 100 µM | SNB-19 > 100 µM | UACC-62 > 100 µM | HT-29 > 100 µM | SF-295 > 100 µM | CAKI-1 > 100 µM | DU-145 > 100 µM | CCRF-CEM > 100 µM | NCI-H460 > 100 µM | MCF7 > 100 µM | 786-0 > 100 µM

N#CCCSC1SC(=C2SC3=C(SCCS3)S2)SC1SCCC#N (stereo not given)
inactive: TK-10 > 100 µM | OVCAR-8 > 100 µM | A549 > 100 µM | MDA-N > 100 µM | U-251 > 100 µM | K562 > 100 µM | UACC-257 > 100 µM | SR > 100 µM | OVCAR-4 > 100 µM | HCC 2998 > 100 µM | SNB-19 > 100 µM | UACC-62 > 100 µM | HT-29 > 100 µM | SF-295 > 100 µM | CAKI-1 > 100 µM | DU-145 > 100 µM | CCRF-CEM > 100 µM | NCI-H460 > 100 µM | MCF7 > 100 µM | 786-0 > 100 µM

CCCCCCCC/C=C1\CCC(CN2CCOCC2)C1=O (stereo not given)
inactive: TK-10 2.77 µM | OVCAR-8 3.83 µM | A549 15 µM | MDA-N 9.55 µM | U-251 14.8 µM | K562 2.74 µM | UACC-257 8.67 µM | SR 2.13 µM | OVCAR-4 13.3 µM | HCC 2998 11.5 µM | SNB-19 11.2 µM | UACC-62 5.35 µM | HT-29 6.98 µM | SF-295 14.7 µM | CAKI-1 8.87 µM | DU-145 5.3 µM | CCRF-CEM 2.79 µM | NCI-H460 16.5 µM | MCF7 1.94 µM | 786-0 1.68 µM

CCC(=O)/C=C/c1ccccc1
inactive: TK-10 > 100 µM | OVCAR-8 51.3 µM | A549 > 100 µM | MDA-N 40.6 µM | U-251 37.9 µM | K562 25.6 µM | UACC-257 72.6 µM | SR 42.8 µM | OVCAR-4 95.9 µM | HCC 2998 63.1 µM | SNB-19 44 µM | UACC-62 37 µM | HT-29 43.7 µM | SF-295 73.5 µM | CAKI-1 56.1 µM | DU-145 > 100 µM | CCRF-CEM 37.2 µM | NCI-H460 70.3 µM | MCF7 31.7 µM | 786-0 46 µM

OC(c1cc(C(O)(C(F)(F)F)C(F)(F)F)ncn1)(C(F)(F)F)C(F)(F)F
inactive: TK-10 > 10 µM | OVCAR-8 > 10 µM | A549 > 10 µM | MDA-N > 10 µM | U-251 > 10 µM | K562 > 10 µM | UACC-257 > 10 µM | SR > 10 µM | OVCAR-4 > 10 µM | HCC 2998 > 10 µM | SNB-19 > 10 µM | UACC-62 > 10 µM | HT-29 > 10 µM | SF-295 > 10 µM | CAKI-1 > 10 µM | DU-145 > 10 µM | CCRF-CEM > 10 µM | NCI-H460 > 10 µM | MCF7 > 10 µM | 786-0 > 10 µM

Cc1ccc(Cc2n[nH]c(=O)[nH]2)cc1
inactive: TK-10 > 100 µM | OVCAR-8 > 100 µM | A549 > 100 µM | MDA-N > 100 µM | U-251 > 100 µM | K562 > 100 µM | UACC-257 > 100 µM | SR > 100 µM | OVCAR-4 > 100 µM | HCC 2998 > 100 µM | SNB-19 > 100 µM | UACC-62 > 100 µM | HT-29 > 100 µM | SF-295 > 100 µM | CAKI-1 > 100 µM | DU-145 > 100 µM | CCRF-CEM > 100 µM | NCI-H460 > 100 µM | MCF7 28.6 µM | 786-0 > 100 µM

Cc1cc(S(=O)(=O)Nc2nnc3c(Cl)cc(C(F)(F)F)cn23)c(S)cc1Cl
inactive: TK-10 > 100 µM | OVCAR-8 50.4 µM | A549 51.6 µM | MDA-N 99.8 µM | U-251 36 µM | K562 66.2 µM | UACC-257 > 100 µM | SR 66.8 µM | OVCAR-4 66.5 µM | HCC 2998 44.8 µM | SNB-19 25.1 µM | UACC-62 48.9 µM | HT-29 37.2 µM | SF-295 71.8 µM | CAKI-1 > 89.3 µM | DU-145 > 91.8 µM | CCRF-CEM > 84.7 µM | NCI-H460 41.8 µM | MCF7 > 61.1 µM | 786-0 57.1 µM

COc1cc(OC)cc(-c2cc(=O)c3c(OC)c(OC)c(OC)c(OC)c3o2)c1
inactive: TK-10 70.6 µM | OVCAR-8 33.6 µM | A549 33.8 µM | MDA-N 41.2 µM | U-251 31.9 µM | K562 20.7 µM | UACC-257 39.2 µM | SR > 100 µM | OVCAR-4 22.9 µM | HCC 2998 31.7 µM | SNB-19 38.5 µM | UACC-62 31.9 µM | HT-29 28.7 µM | SF-295 23 µM | CAKI-1 > 100 µM | DU-145 30.2 µM | CCRF-CEM 20.5 µM | NCI-H460 29 µM | MCF7 63.7 µM | 786-0 29.9 µM
